In patent US12404295B2, “(Hetero)aryl-methyl-thio-beta-D-galactopyranoside derivatives” (Idorsia Pharmaceuticals Ltd, priority 2019, dated 2025):
Where two headings read alike, the source gives them in different places.

How the values were obtained:
[1] = biological target: human Gal-3 (hGal-3) (Homo sapiens (Human), UniProt P17931); assay: competitive binding assay: biotinylated hGal-3 binding to microplate-adsorbed asialofetuin (ASF)
Method in brief: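 3 h, 4 °C binding step; cold buffer wash; streptavidin-HRP 80 ng/mL, 1 h, 4 °C; ABTS colorimetric read-out. Compounds diluted serially in DMSO. IC50 reported as mean of repeat runs.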

[2] = biological target: human Gal-1 (hGal-1) (Homo sapiens (Human), UniProt P09382); assay: competitive binding assay: biotinylated hGal-1 binding to microplate-adsorbed asialofetuin (ASF); details: Table 15; read-out: IC50 (Galectin-1 inhibition)
Method in brief: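 Spectrophotometric competition readout: after compound and biotinylated hGal-1 (300-1000 ng/mL) sit 3 h at 4° C on adsorbed asialofetuin, streptavidin-peroxidase (1 h, 4° C) and ABTS reveal residual binding. Reported IC50 values are means of repeat runs.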

[3] = Table 5, read-out: IC50 (Gal-3 inhibition)
[4] = Gal-3 inhibition, binding of biotinylated hGal-3 to ASF, mean values, read-out: IC50
[5] = Table 10, 2-OMe-Gal inhibitors, read-out: IC50 (Gal-3 inhibition)

Sequence of human Gal-3 (hGal-3) (P17931 whole entry): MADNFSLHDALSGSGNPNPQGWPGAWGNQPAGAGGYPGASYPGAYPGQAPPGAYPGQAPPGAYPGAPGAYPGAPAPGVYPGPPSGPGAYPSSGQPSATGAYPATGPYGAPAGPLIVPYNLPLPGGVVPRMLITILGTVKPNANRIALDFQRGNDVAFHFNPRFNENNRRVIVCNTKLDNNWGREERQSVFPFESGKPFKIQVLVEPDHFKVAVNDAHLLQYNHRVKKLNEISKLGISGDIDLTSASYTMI
Sequence of human Gal-1 (hGal-1) (P09382 whole entry): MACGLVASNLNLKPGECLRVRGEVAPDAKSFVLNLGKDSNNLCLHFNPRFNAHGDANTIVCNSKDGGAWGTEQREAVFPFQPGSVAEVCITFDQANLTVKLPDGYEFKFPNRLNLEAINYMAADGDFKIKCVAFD

For `Cc1ccccc1C(S[C@@H]1O[C@H](CO)[C@H](O)[C@H](n2cc(-c3cc(F)c(F)c(F)c3)nn2)[C@H]1O)C1(O)CCCCC1` (stereo partly drawn) [Example 2.39.102., (2S,3R,4S,5R,6R)-2-(((1-Hydroxycyclohexyl)(o-tolyl)methyl)thio)-6-(hydroxymethyl)-4-(4-(3,4,5-trifluorophenyl)-1H-1,2,3-triazol-1-yl)tetrahydro-2H-pyran-3,5-diol], the IC50 [1, 3] was 0.09 µM and the IC50 [2] was 1.6 µM.
In the case of `Cc1ccccc1C(S[C@@H]1O[C@H](CO)[C@H](O)[C@H](n2cc(-c3cc(F)c(F)c(F)c3)nn2)[C@H]1O)C1(O)CCC1` (stereo partly drawn) [Example 2.34.102., (2S,3R,4S,5R,6R)-2-(((1-Hydroxycyclobutyl)(o-tolyl)methyl)thio)-6-(hydroxymethyl)-4-(4-(3,4,5-trifluorophenyl)-1H-1,2,3-triazol-1-yl)tetrahydro-2H-pyran-3,5-diol], the IC50 [1, 3] is reported as 1 µM and the IC50 [2] is reported as 11 µM.
With `CC(C)(O)C(S[C@@H]1O[C@H](CO)[C@H](O)[C@H](n2cc(-c3cc(F)c(F)c(F)c3)nn2)[C@H]1O)c1ccccc1` (stereo partly drawn) [Example 2.31.100., (2S,3R,4S,5R,6R)-2-((2-Hydroxy-2-methyl-1-phenylpropyl)thio)-6-(hydroxymethyl)-4-(4-(3,4,5-trifluorophenyl)-1H-1,2,3-triazol-1-yl)tetrahydro-2H-pyran-3,5-diol] the IC50 [1, 4] was 1.9 µM and the IC50 [2] was 3.71 µM.
With `CC(C)(O)[C@H](S[C@@H]1O[C@H](CO)[C@H](O)[C@H](n2cc(-c3cc(F)c(F)c(F)c3)nn2)[C@H]1O)c1cccc2ccccc12` [Example 2.31.115R., (2S,3R,4S,5R,6R)-2-(((R)-2-Hydroxy-2-methyl-1-(naphthalen-1-yl)propyl)thio)-6-(hydroxymethyl)-4-(4-(3,4,5-trifluorophenyl)-1H-1,2,3-triazol-1-yl)tetrahydro-2H-pyran-3,5-diol] the IC50 [1, 4] was 0.17 µM and the IC50 [2] was 0.58 µM.
`CO[C@@H]1[C@@H](n2cc(-c3cc(F)c(F)c(F)c3)nn2)[C@@H](O)[C@@H](CO)O[C@H]1S[C@@H](c1nocc1C)C1(O)CCCCC1` [Example 2.39.120S.I., (2R,3R,4S,5R,6S)-6-(((S)-(1-Hydroxycyclohexyl)(4-methylisoxazol-3-yl)methyl)thio)-2-(hydroxymethyl)-5-methoxy-4-(4-(3,4,5-trifluorophenyl)-1H-1,2,3-triazol-1-yl)tetrahydro-2H-pyran-3-ol] showed an IC50 [1, 5] of 12.5 µM and an IC50 [2] of 27.3 µM.
`CC(=O)N1CCC(O)(C(S[C@@H]2O[C@H](CO)[C@H](O)[C@H](n3cc(-c4cc(F)c(F)c(F)c4)nn3)[C@H]2O)c2ccccc2C(F)(F)F)CC1` (stereo partly drawn) [Example 2.48.112., 1-(4-((((2S,3R,4S,5R,6R)-3,5-Dihydroxy-6-(hydroxymethyl)-4-(4-(3,4,5-trifluorophenyl)-1H-1,2,3-triazol-1-yl)tetrahydro-2H-pyran-2-yl)thio)(2-(trifluoromethyl)phenyl)methyl)-4-hydroxypiperidin-1-yl)ethan-1-one] gave an IC50 [1, 4] of 0.22 µM and an IC50 [2] of 0.75 µM.
Molecule `CO[C@@H]1[C@@H](n2cc(-c3cc(F)c(C)c(F)c3)nn2)[C@@H](O)[C@@H](CO)O[C@H]1S[C@@H](c1ncccc1C)C1(O)CCC(F)(F)CC1` [Example 3.44.126S.I., (2R,3R,4S,5R,6S)-6-(((S)-(4,4-Difluoro-1-hydroxycyclohexyl)(3-methylpyridin-2-yl)methyl)thio)-4-(4-(3,5-difluoro-4-methylphenyl)-1H-1,2,3-triazol-1-yl)-2-(hydroxymethyl)-5-methoxytetrahydro-2H-pyran-3-ol] has an IC50 ([1]; Table 14, read-out: IC50 (Gal-3 inhibition)) of 1.16 µM and an IC50 [2] of 20 µM.
Molecule `CO[C@@H]1[C@@H](n2cc(-c3cc(F)c(F)c(F)c3)nn2)[C@@H](O)[C@@H](CO)O[C@H]1S[C@@H](c1nccnc1Cl)C1(O)CCC(F)(F)CC1` [Example 2.44.133S.I., (2R,3R,4S,5R,6S)-6-(((S)-(3-Chloropyrazin-2-yl)(4,4-difluoro-1-hydroxycyclohexyl)methyl)thio)-2-(hydroxymethyl)-5-methoxy-4-(4-(3,4,5-trifluorophenyl)-1H-1,2,3-triazol-1-yl)tetrahydro-2H-pyran-3-ol] has an IC50 [1, 5] of 2.71 µM and an IC50 [2] of 7.54 µM.
Work on `CO[C@@H]1[C@@H](n2cc(-c3cc(F)c(F)c(F)c3)nn2)[C@@H](O)[C@@H](CO)O[C@H]1SC(c1nccnc1Cl)C1(O)CCC(F)(F)CC1` (stereo partly drawn) [Example 2.44.133.I., (2R,3R,4S,5R,6S)-6-(((3-Chloropyrazin-2-yl)(4,4-difluoro-1-hydroxycyclohexyl)methyl)thio)-2-(hydroxymethyl)-5-methoxy-4-(4-(3,4,5-trifluorophenyl)-1H-1,2,3-triazol-1-yl)tetrahydro-2H-pyran-3-ol] yielded an IC50 [1, 5] of 0.17 µM and an IC50 [2] of 1.22 µM.
With `CO[C@@H]1[C@@H](n2cc(-c3cc(F)c(F)c(F)c3)nn2)[C@@H](O)[C@@H](CO)O[C@H]1S[C@H](c1ncccc1C)C1(O)CCC(F)(F)CC1` [Example 2.44.126R.I., (2R,3R,4S,5R,6S)-6-(((R)-(4,4-Difluoro-1-hydroxycyclohexyl)(3-methylpyridin-2-yl)methyl)thio)-2-(hydroxymethyl)-5-methoxy-4-(4-(3,4,5-trifluorophenyl)-1H-1,2,3-triazol-1-yl)tetrahydro-2H-pyran-3-ol] the IC50 ([1]; Table 9, 2-OMe-Gal inhibitors, read-out: IC50 (Gal-3 inhibition)) was 0.07 µM and the IC50 [2] was 0.68 µM.
`COC(=O)N1CCC(O)([C@@H](S[C@@H]2O[C@H](CO)[C@H](O)[C@H](n3cc(-c4cc(F)c(F)c(F)c4)nn3)[C@H]2O)c2ccccc2C(F)(F)F)CC1` [Example 2.50.112S., Methyl 4-((S)-(((2S,3R,4S,5R,6R)-3,5-dihydroxy-6-(hydroxymethyl)-4-(4-(3,4,5-trifluorophenyl)-1H-1,2,3-triazol-1-yl)tetrahydro-2H-pyran-2-yl)thio)(2-(trifluoromethyl)phenyl)methyl)-4-hydroxypiperidine-1-carboxylate] gave an IC50 [1, 4] of 7.7 µM and an IC50 [2] of 15.8 µM.
“(2S,3R,4S,5R,6R)-2-(((2,3-Dichlorophenyl)(4,4-difluoro-1-hydroxycyclohexyl)methyl)thio)-6-(hydroxymethyl)-4-(4-(3,4,5-trifluorophenyl)-1H-1,2,3-triazol-1-yl)tetrahydro-2H-pyran-3,5-diol [Example 2.44.113.]” was tested, and the IC50 [1, 3] was 0.36 µM and the IC50 [2] was 2.35 µM.
`CCc1cccnc1[C@H](S[C@@H]1O[C@H](CO)[C@H](O)[C@H](n2cc(-c3cc(F)c(F)c(F)c3)nn2)[C@H]1OC)C1(O)CCC(F)(F)CC1` [Example 2.44.142S.I., (2R,3R,4S,5R,6S)-6-(((S)-(4,4-Difluoro-1-hydroxycyclohexyl)(3-ethylpyridin-2-yl)methyl)thio)-2-(hydroxymethyl)-5-methoxy-4-(4-(3,4,5-trifluorophenyl)-1H-1,2,3-triazol-1-yl)tetrahydro-2H-pyran-3-ol] showed an IC50 ([1]; Table 11, read-out: IC50 (Gal-3 inhibition)) of 8.11 µM and an IC50 [2] of 8.31 µM.
For `CN1CCC(O)([C@@H](S[C@@H]2O[C@H](CO)[C@H](O)[C@H](n3cc(-c4cc(F)c(F)c(F)c4)nn3)[C@H]2O)c2ncccc2C(F)(F)F)CC1` [Example 2.40.125S., (2S,3R,4S,5R,6R)-2-(((S)-(4-Hydroxy-1-methylpiperidin-4-yl)(3-(trifluoromethyl)pyridin-2-yl)methyl)thio)-6-(hydroxymethyl)-4-(4-(3,4,5-trifluorophenyl)-1H-1,2,3-triazol-1-yl)tetrahydro-2H-pyran-3,5-diol], the IC50 [1, 3] was 3.65 µM and the IC50 [2] was 11.2 µM.
In the case of `CC(C)(O)C(S[C@@H]1O[C@H](CO)[C@H](O)[C@H](n2cc(-c3cc(F)c(F)c(F)c3)nn2)[C@H]1O)c1ccccc1-c1ccccc1` (stereo partly drawn) [Example 2.31.110., (2S,3R,4S,5R,6R)-2-((1-([1,1′-Biphenyl]-2-yl)-2-hydroxy-2-methylpropyl)thio)-6-(hydroxymethyl)-4-(4-(3,4,5-trifluorophenyl)-1H-1,2,3-triazol-1-yl)tetrahydro-2H-pyran-3,5-diol], the IC50 [1, 4] is reported as 0.18 µM and the IC50 [2] is reported as 0.4 µM.
Work on `OC[C@H]1O[C@@H](SC(c2ccccc2C(F)(F)F)C2(O)CCOCC2)[C@H](O)[C@@H](n2cc(-c3cc(F)c(F)c(F)c3)nn2)[C@H]1O` (stereo partly drawn) [Example 2.41.112., (2R,3R,4S,5R,6S)-2-(Hydroxymethyl)-6-(((4-hydroxytetrahydro-2H-pyran-4-yl)(2-(trifluoromethyl)phenyl)methyl)thio)-4-(4-(3,4,5-trifluorophenyl)-1H-1,2,3-triazol-1-yl)tetrahydro-2H-pyran-3,5-diol] yielded an IC50 [1, 3] of 0.11 µM and an IC50 [2] of 0.9 µM.
Molecule `Cc1ccccc1C(S[C@@H]1O[C@H](CO)[C@H](O)[C@H](n2cc(-c3cc(F)c(F)c(F)c3)nn2)[C@H]1O)C1(O)CCN(C)CC1` (stereo partly drawn) [Example 2.40.102., (2S,3R,4S,5R,6R)-2-(((4-Hydroxy-1-methylpiperidin-4-yl)(o-tolyl)methyl)thio)-6-(hydroxymethyl)-4-(4-(3,4,5-trifluorophenyl)-1H-1,2,3-triazol-1-yl)tetrahydro-2H-pyran-3,5-diol] has an IC50 [1, 3] of 0.09 µM and an IC50 [2] of 0.73 µM.
`CCc1c([C@H](S[C@@H]2O[C@H](CO)[C@H](O)[C@H](n3cc(-c4cc(F)c(F)c(F)c4)nn3)[C@H]2O)C2(O)CCC(F)(F)CC2)noc1C1CC1` [Example 2.44.130S., (2S,3R,4S,5R,6R)-2-(((S)-(5-Cyclopropyl-4-ethylisoxazol-3-yl)(4,4-difluoro-1-hydroxycyclohexyl)methyl)thio)-6-(hydroxymethyl)-4-(4-(3,4,5-trifluorophenyl)-1H-1,2,3-triazol-1-yl)tetrahydro-2H-pyran-3,5-diol] gave an IC50 [1, 4] of 1.85 µM and an IC50 [2] of 5.65 µM.
